# In ChEMBL document CHEMBL5131570, “Discovery of Potent Small-Molecule USP8 Inhibitors for the Treatment of Breast Cancer through Regulating ERα Expression” (J Med Chem, 2022):
# Calls of active or inactive are those of the source. No cut-off for these calls is given here.
# Tests used:
# [1] = test system: MCF7; assay: Downregulation of progesterone receptor expression in human MCF7 cells assessed as protein stability by measuring reduction in half life measured up to 24 hrs in presence of cycloheximide by Western blotting analysis; format: functional, cell-based
# [2] = biological target: T1, Ubiquitin carboxyl-terminal hydrolase 8 (Homo sapiens) (UniProt P40818); assay: Inhibition of N-terminal His6-tagged USP8 catalytic domain (734 to 1110 residues) in HEK293T intact cells up to 100 uM in presence of HA-Ub-VS probe by HA antibody based Western blotting assay; format: cell-based
# T1 sequence (whole entry): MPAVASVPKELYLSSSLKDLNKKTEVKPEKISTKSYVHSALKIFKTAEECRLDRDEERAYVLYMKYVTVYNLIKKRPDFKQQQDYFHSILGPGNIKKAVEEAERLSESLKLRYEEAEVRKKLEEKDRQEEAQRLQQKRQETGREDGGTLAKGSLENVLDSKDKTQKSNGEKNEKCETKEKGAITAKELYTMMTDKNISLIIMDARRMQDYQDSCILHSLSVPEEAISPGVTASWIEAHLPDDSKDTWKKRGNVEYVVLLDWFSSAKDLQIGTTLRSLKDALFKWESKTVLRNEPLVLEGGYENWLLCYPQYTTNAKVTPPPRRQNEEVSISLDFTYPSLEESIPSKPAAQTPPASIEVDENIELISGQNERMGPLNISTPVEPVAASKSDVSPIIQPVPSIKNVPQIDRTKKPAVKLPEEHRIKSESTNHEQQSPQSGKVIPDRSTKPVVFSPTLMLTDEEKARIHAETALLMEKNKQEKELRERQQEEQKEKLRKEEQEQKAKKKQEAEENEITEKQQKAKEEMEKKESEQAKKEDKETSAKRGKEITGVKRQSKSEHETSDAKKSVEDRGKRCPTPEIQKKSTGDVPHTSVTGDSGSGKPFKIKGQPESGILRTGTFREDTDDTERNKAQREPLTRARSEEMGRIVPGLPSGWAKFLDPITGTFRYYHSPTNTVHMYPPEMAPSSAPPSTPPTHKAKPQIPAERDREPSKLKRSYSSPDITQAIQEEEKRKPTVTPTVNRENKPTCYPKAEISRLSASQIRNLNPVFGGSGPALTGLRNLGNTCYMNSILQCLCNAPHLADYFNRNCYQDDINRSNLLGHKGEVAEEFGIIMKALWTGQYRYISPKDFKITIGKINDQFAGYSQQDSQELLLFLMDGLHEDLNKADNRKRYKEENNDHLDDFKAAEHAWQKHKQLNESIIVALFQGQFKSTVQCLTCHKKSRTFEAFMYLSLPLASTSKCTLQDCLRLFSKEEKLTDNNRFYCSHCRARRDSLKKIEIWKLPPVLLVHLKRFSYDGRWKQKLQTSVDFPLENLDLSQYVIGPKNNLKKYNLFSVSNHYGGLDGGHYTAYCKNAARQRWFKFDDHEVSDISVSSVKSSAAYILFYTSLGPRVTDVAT
# [3] = test system: MCF7; assay: Downregulation of ERalpha expression in human MCF7 cells assessed as protein stability by measuring reduction in half life measured up to 24 hrs in presence of cycloheximide by Western blotting analysis; format: functional, cell-based
# [4] = biological target: T1, Ubiquitin carboxyl-terminal hydrolase 8 (Homo sapiens); assay: Inhibition of N-terminal His6-tagged USP8 catalytic domain (734 to 1110 residues) in HEK293T cell lysates up to 100 uM in presence of HA-Ub-VS probe by HA antibody based Western blotting assay; format: subcellular
# [5] = biological target: T2, Ubiquitin carboxyl-terminal hydrolase 8 (Homo sapiens, UniProt P40818); assay: Binding affinity to N-terminal His6-tagged USP8 catalytic domain (734 to 1110 residues) (unknown origin) expressed in Escherichia coli BL21 (DE3) cells by surface plasmon resonance method
# T2 sequence (P40818 whole entry): T1 sequence (whole entry)
# [6] = species: Homo sapiens; assay: Selectivity ratio of IC50 for USP2 (unknown origin) catalytic domain to IC50 for USP8 (unknown origin) catalytic domain
# [7] = test system: MCF7; assay: Antitumor activity against human MCF7 cells xenografted in BALB/c mouse assessed as reduction of ERalpha phosphorylation in tumor tissue at 5 to 20 mg/kg, ip administered via gavage every other day for 14 days by immunohistochemistry analysis; format: functional, organism-based; conditions: dose 5-20 mg/kg, time 14.0 day
# [8] = test system: MCF7; assay: Induction of apoptosis in human MCF7 cells assessed as increase in apoptotic cells at 2 uM incubated for 12 hrs by AnnexinV-FITC/propidium iodide staining based flow cytometry relative to control (reference value: 2.00 %); format: functional
# [9] = biological target: T1, Ubiquitin carboxyl-terminal hydrolase 8 (Homo sapiens); assay: Binding affinity to N-terminal His6-tagged USP8 catalytic domain (734 to 1110 residues) (unknown origin) expressed in Escherichia coli BL21 (DE3) cells using K63-linked di-ubiquitin as substrate by di-ubiquitin cleavage assay
# [10] = test system: MCF7; assay: Antitumor activity against human MCF7 cells xenografted in BALB/c mouse assessed as reduction of ErbB2 phosphorylation in tumor tissue at 5 to 20 mg/kg, ip administered via gavage every other day for 14 days by immunohistochemistry analysis; format: functional, organism-based; conditions: dose 5-20 mg/kg, time 14.0 day
# [11] = test system: MCF7; assay: Induction of apoptosis in human MCF7 cells assessed as increase in apoptotic cells at 0.2 uM incubated for 12 hrs by AnnexinV-FITC/propidium iodide staining based flow cytometry relative to control (reference value: 2.00 %); format: functional
# [12] = test system: MCF7; assay: Induction of apoptosis in human MCF7 cells assessed as reduction in EGFR expression level up to 5 uM incubated for 24 hrs by Western blotting analysis; format: functional, cell-based
# [13] = test system: MCF7; assay: Downregulation of progesterone receptor expression in human MCF7 cells measured after 24 hrs by Western blotting analysis; format: functional, cell-based; conditions: dose 0.5-5 µM, DDE = dose-dependent effect
# [14] = Toxicity in BALB/c mouse xenografted with human MCF7 cells assessed as effect on liver at 5 to 20 mg/kg, […] every other day measured after 14 days by hematoxylin and eosin staining based analysis; format: organism-based; conditions: in vivo, 336 h, dose 5-20 mg/kg, time 14 day
# [15] = test system: MCF7; assay: Induction of apoptosis in human MCF7 cells assessed as increase in apoptotic cells at 5 uM incubated for 12 hrs by AnnexinV-FITC/propidium iodide staining based flow cytometry relative to control (reference value: 2.00 %); format: functional
# [16] = test system: MCF7; assay: Antitumor activity against human MCF7 cells xenografted in BALB/c mouse assessed as reduction of ErbB3 phosphorylation in tumor tissue at 5 to 20 mg/kg, ip administered via gavage every other day for 14 days by immunohistochemistry analysis; format: functional, organism-based; conditions: dose 5-20 mg/kg, time 14.0 day
# [17] = test system: MCF7; assay: Induction of apoptosis in human MCF7 cells assessed as increase in apoptotic cells at 0.5 uM incubated for 12 hrs by AnnexinV-FITC/propidium iodide staining based flow cytometry relative to control (reference value: 2.00 %); format: functional
# [18] = Toxicity in BALB/c mouse xenografted with human MCF7 cells assessed as effect on lung at 5 to 20 mg/kg, […] every other day measured after 14 days by hematoxylin and eosin staining based analysis; format: organism-based; conditions: in vivo, 336 h, dose 5-20 mg/kg, time 14 day
# [19] = biological target: T1, Ubiquitin carboxyl-terminal hydrolase 8 (Homo sapiens); assay: Inhibition of N-terminal His6-tagged USP8 catalytic domain (734 to 1110 residues) in HEK293T cell lysates up to 100 uM in presence of HA-Ub-VS probe by USP8 antibody based Western blotting assay; format: subcellular
# [20] = Toxicity in BALB/c mouse xenografted with human MCF7 cells assessed as effect on aspartate aminotransferase level at 5 to 20 mg/kg, […] every other day measured after 14 days; format: organism-based; conditions: in vivo, 336 h, dose 5-20 mg/kg, time 14 day
compound,measurement,setting,value
Cc1n[nH]c(C)c1Oc1c(O)cc(O)c2c(=O)cc(-c3ccc(N4CCN(c5ccccn5)CC4)cc3)oc12,Activity,[1],Active
same,inhibition,[2],Active
same,Activity,[3],Active
same,inhibition,[4],Active
same,Kd,[5],4.7 µM
same,Ratio IC50,[6],49
same,Activity,[7],Active
same,Activity,[8],12.57%
same,Activity,[9],Active
same,Activity,[10],Active
same,Activity,[11],1.9%
same,Activity,[12],Active
same,Activity,[13],Dde
same,Activity,[14],Non-Toxic
same,Activity,[15],14.46%
same,Activity,[16],Active
same,Activity,[17],2.5%
same,Activity,[18],Non-Toxic
same,inhibition,[19],Active
same,Activity,[20],Non-Toxic
